For orientation: TGI means the concentration at which net growth stops. A higher TGI goes with less potent growth arrest. Broadly, the GI50 is the concentration at which growth is held to half of that of the control.

Drawing on PubChem BioAssay (NCI), this text covers TGI and GI50 for 9 compounds.

Values joined by “and” are separate entries in the source; they are usually repeats but may differ in a detail not shown here. Equal values may be shown once.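 Grown in 96-well plates, cells were treated for 48 hours with each compound at five concentrations. Insufficient inhibition: endpoint recorded as highest concentration tested. GI50 marks 50% less growth. TGI marks complete inhibition of growth.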

Common to all, as to assay: DTP human tumour cell line panel, 48 h
For assay [1], the system named is HS 578T breast.
The subject of assay [2] is MDA-MB-231 breast.
The subject of assay [3] is NCI-H23 lung.
In assay [4] the test system is OVCAR-3 ovarian.
Assay [5] concerns RPMI-8226 leukemia.
In assay [6] the test system is RXF 393 renal.
The subject of assay [7] is T-47D breast.
Assay [8] relates to UO-31 renal.

Regarding `CCc1nc(N)nc(N)c1-c1ccc(Cl)c(N=NN(C)C)c1`, the TGI in assay [1] is above 100 µM; in assay [2] it was above 100 µM; in assay [3], above 100 µM; in assay [4], above 91.5 µM; in assay [5], 49 µM; in assay [6], above 100 µM. The TGI is above 93 µM in assay [7] and above 70.4 µM in assay [8].

Regarding `Cc1ccccc1NC(=O)c1sc2nc3c(cc2c1N)C(=O)CCC3`, the GI50 is 1.71 µM in assay [1]; 3.98 µM in assay [2]; 4.62 µM in assay [3]; 1.76 µM in assay [4]; 5.29 µM in assay [5]; 1.62 µM in assay [6]. The values for the GI50 in assay [7] and in assay [8] were 4.81 µM and 34.4 µM, respectively. The TGI was 5.56 µM in assay [1]; above 100 µM in assay [2]; above 100 µM in assay [3]; 4.45 µM in assay [4]; above 100 µM in assay [5]; 5.65 µM in assay [6]. The TGI in assay [7] and in assay [8] was above 100 µM throughout.

On to `CCCCc1nc2cc(/C=C/C(=O)NO)ccc2n1CCN(CC)CC`, for which the GI50 in assay [1] was 0.515 µM; in assay [2], 0.485 µM; in assay [3], 0.452 µM; in assay [4], 0.363 µM; in assay [5], 0.176 µM; in assay [6], 0.178 µM. The results for the GI50 in assay [7] and in assay [8] were 0.136 µM and 0.25 µM, respectively. The TGI in assay [1] is 33 µM; in assay [2], 5.43 µM; in assay [3], 7.72 µM; in assay [4], 1.83 µM; in assay [5], above 100 µM; in assay [6], 0.789 µM. The TGI in assay [7] was above 47.4 µM; in assay [8], 4.92 µM.

`O=C(Nc1ccccc1F)c1ccc(NC2=C(Cl)C(=O)N(Cc3ccccc3)C2=O)cc1`: the GI50 in assay [1] was 2.95 µM; in assay [2], 2.8 µM; in assay [3], 13 µM; in assay [4], 1.68 µM; in assay [5] it was 1.83 µM; in assay [6], 5.09 µM. For the same compound, the values for the GI50 in assay [7] and in assay [8] were 3.06 µM and 1.86 µM, respectively. The TGI in assay [1] was found to be 9.4 µM; in assay [2], 13.8 µM; in assay [3], 25.7 µM; in assay [4] it was 3.05 µM; in assay [5], 3.92 µM; in assay [6] it was 16.6 µM. The TGI was found to be 8.01 µM in assay [7] and 3.6 µM in assay [8].

On to `COc1cccc2c(Nc3ccc(C(=O)NCCN(C)C)cc3)cc(-c3ccccc3)nc12`, for which the GI50 is 21.4 µM in assay [1]; 4.15 µM in assay [2]; 20.3 µM in assay [3]; 25.6 µM in assay [4]; 6.11 µM in assay [5]; 5.12 µM in assay [6]. The GI50 is 19.7 µM in assay [7] and 13.9 µM in assay [8]. Moreover, the TGI in assay [1] turned out to be 53.6 µM; in assay [2] it was 19.4 µM; in assay [3], 45.6 µM; in assay [4], 54.1 µM; in assay [5], 24.4 µM; in assay [6], 19.7 µM. Further, the TGI amounted to 50.2 µM in assay [7] and 32.3 µM in assay [8].

As for `NCC(=O)CCC(=O)O`, the GI50 in assay [1], in assay [2], in assay [3], in assay [4], in assay [5] and in assay [6] was above 100 µM each time. Further, the GI50 in assay [7] and in assay [8] was above 100 µM in each case. The TGI in assay [1], in assay [2], in assay [3], in assay [4], in assay [5] and in assay [6] was above 100 µM each time. The TGI in assay [7] and in assay [8] was above 100 µM in each case.

Turning to `Nc1c(O)c(S(=O)(=O)O)c(O)c2c1C(=O)c1ccccc1C2=O`, the GI50 is 4.69 µM in assay [1]; 5.85 µM in assay [2]; 2.82 µM in assay [3]; 2.94 µM in assay [4]; 2.53 µM in assay [5]; 3.37 µM in assay [6]. Moreover, the values for the GI50 in assay [7] and in assay [8] were 2.36 µM and 2.47 µM, respectively. In addition, the TGI in assay [1] was above 100 µM; in assay [2], 28.1 µM; in assay [3], 9.88 µM; in assay [4] it was 14.5 µM; in assay [5], 7.77 µM; in assay [6], above 100 µM. Besides, the results for the TGI in assay [7] and in assay [8] were 7.37 µM and 9.13 µM, respectively.

In the case of `COc1ccc(Cn2cc(Cn3c(=O)c(-c4nc5ccccc5[nH]4)cc4ccccc43)nn2)c(OC)c1OC`, the GI50 in assay [1] is 0.0778 µM and 0.168 µM; in assay [2] it was 0.292 µM and 0.451 µM; in assay [3], 0.329 µM and 0.581 µM; in assay [4] it was 0.165 µM and 0.292 µM; in assay [5], 0.129 µM; in assay [6], 0.129 µM. Also, the GI50 was 0.154 µM and 0.804 µM in assay [7]; 0.576 µM and 0.749 µM in assay [8]. Also, the TGI was 1.54 µM and 3.07 µM in assay [2]; 50 µM and > 100 µM in assay [3]; 0.633 µM and 1.19 µM in assay [4]; 1.15 µM in assay [5]; 0.49 µM in assay [6]; 1.78 µM and 4.63 µM in assay [8].

`CC1(C)CC[C@]2(C(=O)O)CC[C@]3(C)[C@H](CC[C@@H]4[C@@]5(C)CCC(=O)C(C)(C)[C@@H]5CC[C@]43C)[C@H]2[C@H]1OC(=O)C(F)(F)F`: the GI50 in assay [1] was 20.3 µM; in assay [2], 13.5 µM; in assay [3], 11 µM; in assay [4], 12.4 µM; in assay [5], 4.82 µM; in assay [6], 11.1 µM. The GI50 is 3.84 µM in assay [7] and 13.7 µM in assay [8]. Besides, the TGI worked out at 83.5 µM in assay [1]; 31.4 µM in assay [2]; 28.6 µM in assay [3]; 26.4 µM in assay [4]; 30.9 µM in assay [5]; 23.8 µM in assay [6]. Further, the figures for the TGI in assay [7] and in assay [8] were 23.9 µM and 27 µM, respectively.
